From ChEMBL document CHEMBL5505994, “Nur77 increases mitophagy and decreases aggregation of α-synuclein by modulating the p-c-Abl/p-PHB2 Y121 in α-synuclein PFF SH-SY5Y cells and mice” (Eur J Med Chem, 2024)
The source made the active and inactive calls.

Columns and labels:
Mus musculus [1] = organism: Mus musculus; assay: Neuroprotection activity in alpha-synuclein preformed fibril-induced C57BL/6J mouse PD model assessed as increase in LC3 level in brain at 1 uM treated after 3 month PPF challenge measured after 14 days by Western blot analysis; assay type: functional, organism-based; conditions: time 14.0 day
SH-SY5Y [2] = assay: Agonist activity at Nur77-c-Abl-PHB2 pathway in alpha-synuclein preformed fibril-induced human SH-SY5Y cells assessed as decrease in p62 expression at 1 uM treated for 24 hrs by Western blot analysis; assay type: cell-based; conditions: filed as agonist
Mus musculus [3] = organism: Mus musculus; assay: Neuroprotection activity in alpha-synuclein preformed fibril-induced C57BL/6J mouse PD model assessed as rescue of DA neurons in brain by measuring TH positive neurons at 1 uM treated after 3 month PPF challenge measured after 14 days by immunohistochemistry; assay type: functional, organism-based; conditions: time 14.0 day
SH-SY5Y [4] = assay: Agonist activity at Nur77-c-Abl-PHB2 pathway in alpha-synuclein preformed fibril-induced human SH-SY5Y cells assessed as increase in ratio of LC3-II/LC3I at 1 uM treated for 24 hrs by Western blot analysis; assay type: cell-based; conditions: filed as agonist
Mus musculus [5] = organism: Mus musculus; assay: Neuroprotection activity in alpha-synuclein preformed fibril-induced C57BL/6J mouse PD model assessed as decrease in p62 expression in brain at 1 uM treated after 3 month PPF challenge measured after 14 days by Western blot analysis; assay type: functional, organism-based; conditions: time 14.0 day
SH-SY5Y [6] = assay: Agonist activity at Nur77-c-Abl-PHB2 pathway in alpha-synuclein preformed fibril-induced human SH-SY5Y cells assessed as interaction with c-Abl at 1 uM treated for 24 hrs by Co-immunoprecipitation (Co-IP) assay; assay type: cell-based; conditions: filed as agonist
Mus musculus [7] = organism: Mus musculus; assay: Neuroprotection activity in alpha-synuclein preformed fibril-induced C57BL/6J mouse PD model assessed as decrease in phosphorylated c-Abl level in brain at 1 uM treated after 3 month PPF challenge measured after 14 days by Western blot analysis; assay type: functional, organism-based; conditions: time 14.0 day
SH-SY5Y [8] = assay: Agonist activity at Nur77-c-Abl-PHB2 pathway in alpha-synuclein preformed fibril-induced human SH-SY5Y cells assessed as increase in PHB2/LC3 interaction at 1 uM treated for 24 hrs by Co-immunoprecipitation (Co-IP) assay; assay type: cell-based; conditions: filed as agonist
SH-SY5Y [9] = assay: Agonist activity at Nur77-c-Abl-PHB2 pathway in alpha-synuclein preformed fibril-induced human SH-SY5Y cells assessed as translocation of Nur77 into mitochondria at 1 uM treated for 24 hrs by Western blot analysis; conditions: filed as agonist
Mus musculus [10] = organism: Mus musculus; assay: Neuroprotection activity in alpha-synuclein preformed fibril-induced C57BL/6J mouse PD model assessed as decrease in phosphorylated […] level in brain at 1 uM treated after 3 month PPF challenge measured after 14 days by Western blot analysis; assay type: functional, organism-based; conditions: time 14.0 day
Mus musculus [11] = organism: Mus musculus; assay: Neuroprotection activity in alpha-synuclein preformed fibril-induced C57BL/6J mouse PD model assessed as decrease in pS129-alpha-synuclein in SNpc TH positive neurons in brain at 1 uM treated after 3 month PPF challenge measured after 14 days by Western blot analysis; assay type: functional, organism-based; conditions: time 14.0 day
SH-SY5Y [12] = assay: Agonist activity at Nur77-c-Abl-PHB2 pathway in alpha-synuclein preformed fibril-induced human SH-SY5Y cells assessed as decrease in c-Abl phosphorylation at 1 uM treated for 24 hrs by Western blot analysis; assay type: cell-based; conditions: filed as agonist
SH-SY5Y [13] = assay: Agonist activity at Nur77-c-Abl-PHB2 pathway in alpha-synuclein preformed fibril-induced human SH-SY5Y cells assessed as reduction in PHB2 phosphorylation at 1 uM treated for 24 hrs by Western blot analysis; assay type: cell-based; conditions: filed as agonist
SH-SY5Y [14] = assay: Agonist activity at Nur77 in alpha-synuclein preformed fibril-induced human SH-SY5Y cells assessed as reduction in alpha-synuclein aggregation at 1 uM treated for 24 hrs by Western blot analysis; assay type: cell-based; conditions: filed as agonist

Measured: Activity

CCCCCCCC(=O)c1c(O)cc(O)cc1CC(=O)OCC
active: all assays above
